{"source": "patent US8637484B2", "about": "“Modulation of growth hormone receptor expression and insulin-like growth factor expression” (Antisense Therapeutic Limited, priority 2003, dated 2014)", "note": "In the oligonucleotide strings, read from the 5' end, every base follows the letter of its sugar. An asterisk marks phosphorothioate; unmarked linkages are phosphodiester. Other units and linkages are bracketed, terminal groups are in braces. A string of capitals states the bases alone. e = 2'-O-(2-methoxyethyl) (MOE); [5mC] = 5-methylcytosine; d = 2'-deoxy (DNA)"}
{"tested_on": "mouse growth hormone receptor mRNA", "test": "Inhibition of mouse growth hormone receptor mRNA levels in b.END cells, quantitative real-time PCR", "assay_type": "cell-based", "design": "% INHIB: concentration or dose not given beside the values", "conditions": "dose-response studies", "experimental": "(§1) The mouse brain endothelial cell line b.END was obtained from Dr. Werner Risau at the Max Plank Instititute (Bad Nauheim, Germany). b.END cells were routinely cultured in DMEM, high glucose (Gibco/Life Technologies, Gaithersburg, Md.) supplemented with 10% fetal calf serum (Gibco/Life Technologies, Gaithersburg, Md.). Cells were routinely passaged by trypsinization and dilution when they reached 90% confluence. Cells were seeded into 96-well plates (Falcon-Primaria #3872) at a density of 3000 cells/well for use in RT-PCR analysis.\n(§2) When cells reached 65-75% confluency, they were treated with oligonucleotide. For cells grown in 96-well plates, wells were washed once with 100 μL OPTI-MEM™-1 reduced-serum medium (Invitrogen Corporation, Carlsbad, Calif.) and then treated with 130 μL of OPTI-MEM™-1 containing 3.75 μg/mL LIPOFECTIN™ (Invitrogen Corporation, Carlsbad, Calif.) and the desired concentration of oligonucleotide. Cells are treated and data are obtained in triplicate. After 4-7 hours of treatment at 37° C., the medium was replaced with fresh medium. Cells were harvested 16-24 hours after oligonucleotide treatment.\n(§3) Total RNA was isolated using an RNEASY 96™ kit and buffers purchased from Qiagen Inc. (Valencia, Calif.) following the manufacturer's recommended procedures. Briefly, for cells grown on 96-well plates, growth medium was removed from the cells and each well was washed with 200 μL cold PBS. 150 μL Buffer RLT was added to each well and the plate vigorously agitated for 20 seconds. 150 μL of 70% ethanol was then added to each well and the contents mixed by pipetting three times up and down. The samples were then transferred to the RNEASY 96™ well plate attached to a QIAVAC™ manifold fitted with a waste collection tray and attached to a vacuum source. Vacuum was applied for 1 minute. 500 μL of Buffer RW1 was added to each well of the RNEASY 96™ plate and incubated for 15 minutes and the vacuum was again applied for 1 minute. An additional 500 μL of Buffer RW1 was added to each well of the RNEASY 96™ plate and the vacuum was applied for 2 minutes. 1 mL of Buffer RPE was then added to each well of the RNEASY 96™ plate and the vacuum applied for a period of 90 seconds. The Buffer RPE wash was then repeated and the vacuum was applied for an additional 3 minutes. The plate was then removed from the QIAVAC™ manifold and blotted dry on paper towels. The plate was then re-attached to the QIAVAC™ manifold fitted with a collection tube rack containing 1.2 mL collection tubes. RNA was then eluted by pipetting 140 μL of RNAse free water into each well, incubating 1 minute, and then applying the vacuum for 3 minutes.\n(§4) Quantitation of growth hormone receptor mRNA levels was accomplished by real-time quantitative PCR using the ABI PRISM™ 7600, 7700, or 7900 Sequence Detection System (PE-Applied Biosystems, Foster City, Calif.) according to manufacturer's instructions. This is a closed-tube, non-gel-based, fluorescence detection system which allows high-throughput quantitation of polymerase chain reaction (PCR) products in real-time. As opposed to standard PCR in which amplification products are quantitated after the PCR is completed, products in real-time quantitative PCR are quantitated as they accumulate. This is accomplished by including in the PCR reaction an oligonucleotide probe that anneals specifically between the forward and reverse PCR primers, and contains two fluorescent dyes. A reporter dye (e.g., FAM or JOE, obtained from either PE-Applied Biosystems, Foster City, Calif., Operon Technologies Inc., Alameda, Calif. or Integrated DNA Technologies Inc., Coralville, Iowa) is attached to the 5′ end of the probe and a quencher dye (e.g., TAMRA, obtained from either PE-Applied Biosystems, Foster City, Calif., Operon Technologies Inc., Alameda, Calif. or Integrated DNA Technologies Inc., Coralville, Iowa) is attached to the 3′ end of the probe. […]", "units": {"IC50": "µM"}}
{"substance": "227507 (antisense eG*eT*e[5mC]*e[5mC]*eT*dT*dG*d[5mC]*dT*d[5mC]*d[5mC]*dA*dG*dG*dT*eT*eA*eG*e[5mC]*eA) [compound 227507]", "IC50": "~0.0125"}
{"substance": "227509 (antisense eG*e[5mC]*eA*eG*eT*dT*d[5mC]*dT*dA*dT*d[5mC]*dA*dG*dA*dA*e[5mC]*eT*eT*eT*eG) [compound 227509]", "IC50": "~0.0125"}
{"tested_on": "mouse growth hormone receptor mRNA", "test": "Inhibition of mouse growth hormone receptor mRNA levels in b.END cells, quantitative real-time PCR", "assay_type": "cell-based", "design": "% INHIB: concentration or dose not given beside the values", "conditions": "mouse growth hormone receptor mRNA, b.END cells, averages from three experiments", "experimental": "as §1, §2, §3, §4", "units": {"% INHIB": "%"}}
{"substance": "227496 (antisense eG*e[5mC]*eA*eT*eT*d[5mC]*dA*dA*dT*dT*dT*d[5mC]*d[5mC]*dT*dG*eA*eA*e[5mC]*eT*eG) [compound 227496]", "% INHIB": 51}
{"substance": "227497 (antisense eT*eA*eA*eA*eT*dG*dT*dT*dT*dT*dG*d[5mC]*dA*dT*dA*eT*e[5mC]*e[5mC]*eA*eA) [compound 227497]", "% INHIB": 77}
{"substance": "227498 (antisense eT*eT*eG*eT*eA*dA*dA*dA*dA*dT*d[5mC]*dT*dA*dA*d[5mC]*eT*eT*eG*eT*eT) [compound 227498]", "% INHIB": 49}
{"substance": "227503 (antisense eT*eA*e[5mC]*e[5mC]*eT*dG*dA*dG*dA*d[5mC]*d[5mC]*d[5mC]*d[5mC]*dA*dG*eT*eT*e[5mC]*eA*eT) [compound 227503]", "% INHIB": 24}
{"substance": "227504 (antisense eT*eA*e[5mC]*e[5mC]*eT*dG*dA*dG*dA*d[5mC]*d[5mC]*d[5mC]*d[5mC]*dG*d[5mC]*eG*e[5mC]*eA*eG*e[5mC]) [compound 227504]", "% INHIB": 34}
{"substance": "227505 (antisense eT*eA*e[5mC]*e[5mC]*eT*dG*dA*dG*dA*d[5mC]*d[5mC]*d[5mC]*dA*d[5mC]*dA*eA*eG*e[5mC]*eG*eG) [compound 227505]", "% INHIB": 39}
{"substance": "227506 (antisense e[5mC]*e[5mC]*eT*e[5mC]*e[5mC]*dA*dG*dT*dA*d[5mC]*d[5mC]*dT*d[5mC]*dG*dG*eA*eG*eT*eT*eT) [compound 227506]", "% INHIB": 69}
{"substance": "227507 (antisense eG*eT*e[5mC]*e[5mC]*eT*dT*dG*d[5mC]*dT*d[5mC]*d[5mC]*dA*dG*dG*dT*eT*eA*eG*e[5mC]*eA) [compound 227507]", "% INHIB": 89}
{"substance": "227508 (antisense eT*eT*e[5mC]*e[5mC]*eA*d[5mC]*dT*d[5mC]*dA*d[5mC]*d[5mC]*d[5mC]*d[5mC]*dA*dG*eT*eT*e[5mC]*eA*eT) [compound 227508]", "% INHIB": 51}
{"substance": "227509 (antisense eG*e[5mC]*eA*eG*eT*dT*d[5mC]*dT*dA*dT*d[5mC]*dA*dG*dA*dA*e[5mC]*eT*eT*eT*eG) [compound 227509]", "% INHIB": 82}
{"substance": "227510 (antisense e[5mC]*eT*e[5mC]*e[5mC]*eA*dG*dA*d[5mC]*dG*dT*dG*dA*d[5mC]*d[5mC]*d[5mC]*eG*eA*e[5mC]*eT*e[5mC]) [compound 227510]", "% INHIB": 64}
{"substance": "227511 (antisense e[5mC]*e[5mC]*eA*e[5mC]*eG*d[5mC]*dA*d[5mC]*d[5mC]*d[5mC]*dA*d[5mC]*dA*dA*dG*e[5mC]*eG*eG*eA*eT) [compound 227511]", "% INHIB": 71}
{"substance": "227512 (antisense eT*eA*eA*e[5mC]*e[5mC]*dT*dA*dT*dG*dG*dT*dG*dA*d[5mC]*dT*eA*eT*eG*eT*e[5mC]) [compound 227512]", "% INHIB": 36}
{"substance": "227513 (antisense eT*eA*e[5mC]*e[5mC]*eT*dG*dA*dG*dA*d[5mC]*d[5mC]*dT*dG*d[5mC]*dA*eA*eG*eA*e[5mC]*eA) [compound 227513]", "% INHIB": 40}
{"substance": "227514 (antisense eA*eT*eG*e[5mC]*eT*d[5mC]*dA*d[5mC]*dG*dT*d[5mC]*dA*dG*d[5mC]*dT*eA*eT*eT*eG*eG) [compound 227514]", "% INHIB": 43}
{"substance": "227515 (antisense eA*eA*eA*eT*eT*d[5mC]*dT*dT*dA*d[5mC]*dT*dT*dG*dT*d[5mC]*e[5mC]*e[5mC]*e[5mC]*eA*eG) [compound 227515]", "% INHIB": 37}
{"substance": "227516 (antisense eT*eT*eG*eG*e[5mC]*dT*dT*dT*d[5mC]*d[5mC]*d[5mC]*dT*dG*dG*dA*eG*eG*eT*eT*e[5mC]) [compound 227516]", "% INHIB": 57}
{"substance": "227517 (antisense e[5mC]*eT*eT*e[5mC]*eA*d[5mC]*dT*dA*dA*d[5mC]*d[5mC]*dT*dT*dG*d[5mC]*eA*eG*e[5mC]*eT*eT) [compound 227517]", "% INHIB": 63}
{"substance": "227518 (antisense e[5mC]*eA*e[5mC]*eG*eG*d[5mC]*dT*dT*dA*d[5mC]*d[5mC]*dT*dA*dT*dT*eT*e[5mC]*eG*eT*e[5mC]) [compound 227518]", "% INHIB": 6}
{"substance": "227519 (antisense eT*e[5mC]*eA*e[5mC]*eA*d[5mC]*d[5mC]*dT*dA*d[5mC]*d[5mC]*dT*dT*dT*dG*e[5mC]*eT*eG*e[5mC]*eT) [compound 227519]", "% INHIB": 44}
{"substance": "227520 (antisense e[5mC]*eA*eT*e[5mC]*eT*dT*dA*dA*dT*d[5mC]*d[5mC]*dT*dT*dG*dG*eA*eA*eA*e[5mC]*eA) [compound 227520]", "% INHIB": 42}
{"tested_on": "serum IGF-I", "test": "Serum IGF-I, additional 1 week study in mice", "assay_type": "in vivo, mouse", "conditions": "50 mg/kg once every 2 days, day 7", "experimental": "(§5) Male Balb/C(a) mice were prepared and grouped for analysis as in Example 18 above.\nAnimals (n=10/group) were designated to the following treatment groups:\n(§6) Animals were treated and serum IGF-I levels were measured as in Example 18 above. Briefly, for the one-week study, mice were given a subcutaneous dose of saline every second day, and mismatch control or antisense with administration on days 0, 2, 4, 6. On day 7, the animals were anaesthetized with pentobarbital and non-fasting blood samples collected exactly 5 minutes later from the retrobulbar plexus through heparinized capillary tubes under light ether anesthesia. Serum IGF-I measurement was done by radioimmunoassay at day 7.", "units": {"reduction of serum IGF-I relative to saline control": "%"}}
{"substance": "TTACCGTATGGTTCCTCACT (chemistry not given here) [ISIS 260120, unrelated negative control oligonucleotide, reference compound]", "reduction of serum IGF-I relative to saline control": 17}
{"tested_on": "growth hormone receptor mRNA", "test": "Growth hormone receptor mRNA levels in liver, additional 1 week study", "assay_type": "in vivo, mouse", "conditions": "50 mg/kg, one-week study", "experimental": "as §5, §6\nGrowth hormone receptor mRNA levels in liver tissue samples from treated and untreated mice in this one-week study were assayed. The growth hormone receptor antisense inhibitor ISIS 227446 reduced growth hormone receptor mRNA levels in liver after the one-week study by 72% at the 50 mg/kg dose, relative to saline control (p<0.0001). The 30 mg/kg dose of ISIS 227446 yielded a 50% decrease in growth hormone receptor mRNA (p<0.0001). The unrelated control oligonucleotide ISIS 260120, at 50 mg/kg, reduced growth hormone receptor mRNA levels by approximately 15% (p>0.05)."}
{"substance": "TTACCGTATGGTTCCTCACT (chemistry not given here) [ISIS 260120, unrelated negative control oligonucleotide, reference compound]", "reduction of growth hormone receptor mRNA levels in liver relative to saline control": "approximately 15%"}
{"tested_on": "serum IGF-I", "test": "Serum IGF-I, two-week mouse study", "assay_type": "in vivo", "conditions": "30 mg/kg, 2 weeks", "experimental": "A two-week study was done in similar fashion to the one-week study in Example 18, this time using ISIS 227446 at doses of 3, 5, 10, 20 and 30 mg/kg. The mismatch control was given at the same doses. Mice were treated with antisense compound or saline every other day for 14 days.\nP-values were determined by t-test."}
{"substance": "TTACCGTATGGTTCCTCACT (chemistry not given here) [ISIS 260120, unrelated negative control oligonucleotide, reference compound]", "effect on serum IGF-I levels seen with the mismatch oligonucleotide": "not observed"}
